In the supplement of paper PMC9663587:

Each cell line was assayed with CC1=CN2C(=O)C=C(N=C2C(=C1)C(C)NC3=CC=CC=C3)N4CCOCC4 [TGX221] (assay: not given). Conditions: not given.
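Throughout, for GR value, 72 h: breast cancer and non-malignant breast epithelial lines, nine half-log doses, viable cells counted by Hoechst and LIVE/DEAD dye imaging versus time-zero plates and DMSO controls.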
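Throughout, for GR50, 72 h: breast cancer and non-malignant breast epithelial cell lines, Deep Dye Drop or Dye Drop imaging, nine half-log doses, GR normalized to time-zero plates and DMSO-only controls.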

Row | Cell Line | GR50, 72 h [µM]
1 | UACC812 | 0.0345
2 | UACC893 | > 10
3 | ZR751 | 0.371
4 | ZR7530 | > 10

The cell lines below were run with T1, CN1CC[C@H](c2c(O)cc(O)c3c(=O)cc(-c4ccccc4Cl)oc23)[C@H](O)C1 [Flavopiridol] (assay: not given). Conditions: not given.

Row | Cell Line | GR50, 72 h [µM]
5 | UACC812 | 0.0813
6 | UACC893 | 0.117
7 | ZR751 | 0.35
8 | ZR7530 | 0.192

What follows are cell lines tested with CN1CCN(CCOc2cc(OC3CCOCC3)c3c(Nc4c(Cl)ccc5c4OCO5)ncnc3c2)CC1 [Saracatinib/AZD0530] (assay: not given). Conditions: not given.

Row | Cell Line | GR50, 72 h [µM]
9 | UACC812 | 0.0189
10 | UACC893 | 4.54
11 | ZR751 | 3.66
12 | ZR7530 | 0.533

Each cell line was assayed with CC(=O)c1c(C)c2cnc(Nc3ccc(N4CCN(CCOCCOCCOCCNC(=O)COc5cccc6c5C(=O)N(C5CCC(=O)NC5=O)C6=O)CC4)cn3)nc2n(C2CCCC2)c1=O [BSJ-03-123] (assay: not given). Conditions: not given.

Row | Cell Line | GR50, 72 h [µM]
13 | UACC812 | 0.836
14 | UACC893 | 1.46
15 | ZR751 | 3.04
16 | ZR7530 | 0.58

The cell lines below were run with COc1ccc2c(c1)[C@]1(C[C@H]1c1ccc3c(/C=C/c4ccc(CN5C[C@@H](C)O[C@@H](C)C5)cc4)n[nH]c3c1)C(=O)N2 (assay: not given). Conditions: not given.

Row | Cell Line | GR50, 72 h [µM]
17 | UACC812 | 0.0127
18 | UACC893 | 0.0124
19 | ZR751 | 0.0085
20 | ZR7530 | 0.00327

Each cell line was assayed with CNCc1ccc(-c2[nH]c3cc(F)cc4c3c2CCNC4=O)cc1 [Rucaparib] (assay: not given). Conditions: not given.

Row | Cell Line | GR50, 72 h [µM]
21 | UACC812 | > 10
22 | UACC893 | > 10
23 | ZR751 | > 10
24 | ZR7530 | > 10

These cell lines were tested with CCOc1cc2ncc(C#N)c(Nc3ccc(OCc4ccccn4)c(Cl)c3)c2cc1NC(=O)/C=C/CN(C)C [Neratinib/HKI272] (assay: not given). Conditions: not given.

Row | Cell Line | GR50, 72 h [µM]
25 | UACC812 | 0.00313
26 | UACC893 | 0.00274
27 | ZR751 | > 3.16
28 | ZR7530 | 0.000681

These cell lines were tested with CN(C)C/C=C/C(=O)Nc1ccc(O[C@@H]2CCC[C@@H](Nc3ncc(Cl)c(-c4c[nH]c5ccccc45)n3)C2)cc1 [BSJ-01-175] (assay: not given). Conditions: not given.

Row | Cell Line | GR50, 72 h [µM]
29 | UACC812 | 0.332
30 | UACC893 | 0.0165
31 | ZR751 | 3.46
32 | ZR7530 | 0.0237

These cell lines were tested with CN(C)CC[C@H](CSc1ccccc1)Nc1ccc(S(=O)(=O)NC(=O)c2ccc(N3CCN(Cc4ccccc4-c4ccc(Cl)cc4)CC3)cc2)cc1[N+](=O)[O-] [ABT-737] (assay: not given). Conditions: not given.

Row | Cell Line | GR50, 72 h [µM]
33 | UACC812 | 3.73
34 | UACC893 | 9.97
35 | ZR751 | > 10
36 | ZR7530 | > 10

The cell lines below were run with CN(C)C/C=C/C(=O)Nc1ccc(C(=O)Nc2cccc(Nc3ncc(Cl)c(-c4c[nH]c5ccccc45)n3)c2)cc1 [THZ1] (assay: not given). Conditions: not given.

Row | Cell Line | GR50, 72 h [µM]
37 | UACC812 | 0.691
38 | UACC893 | 0.0175
39 | ZR751 | 0.428
40 | ZR7530 | 0.0259

Each cell line was assayed with CCc1cnn2c(NCc3ccc[n+]([O-])c3)cc(N3CCCC[C@H]3CCO)nc12 (assay: GR value, 72 h; higher = faster growth (1 = untreated, <0 = killing)). Conditions: 0.0001 µM.

Row | Cell Line | GR value [GR]
41 | UACC812 | 1.17
42 | UACC893 | 0.963
43 | ZR751 | 1.03
44 | ZR7530 | 0.895

Same assay, conditions: 0.0003162 µM

Row | Cell Line | GR value [GR]
45 | UACC812 | 1.22
46 | UACC893 | 0.894
47 | ZR751 | 1.04
48 | ZR7530 | 0.995

Same assay, conditions: 0.001 µM

Row | Cell Line | GR value [GR]
49 | UACC812 | 1.63
50 | UACC893 | 1
51 | ZR751 | 1.02
52 | ZR7530 | 1.06

Same assay, conditions: 0.003162 µM

Row | Cell Line | GR value [GR]
53 | UACC812 | 1.63
54 | UACC893 | 0.997
55 | ZR751 | 0.969
56 | ZR7530 | 0.953

Same assay, conditions: 0.01 µM

Row | Cell Line | GR value [GR]
57 | UACC812 | 1.28
58 | UACC893 | 0.865
59 | ZR751 | 1.02
60 | ZR7530 | 0.909

Same assay, conditions: 0.03162 µM

Row | Cell Line | GR value [GR]
61 | UACC812 | -0.347
62 | UACC893 | -0.169
63 | ZR751 | 0.644
64 | ZR7530 | -0.42

Same assay, conditions: 0.1 µM

Row | Cell Line | GR value [GR]
65 | UACC812 | -0.932
66 | UACC893 | -0.503
67 | ZR751 | -0.456
68 | ZR7530 | -0.601

Same assay, conditions: 0.3162 µM

Row | Cell Line | GR value [GR]
69 | UACC812 | -0.948
70 | UACC893 | -0.612
71 | ZR751 | -0.359
72 | ZR7530 | -0.696

Same assay, conditions: 1 µM

Row | Cell Line | GR value [GR]
73 | UACC812 | -0.949
74 | UACC893 | -0.649
75 | ZR751 | -0.434
76 | ZR7530 | -0.728

These cell lines were tested with CN(C)C(=O)c1cc2cnc(Nc3ccc(N4CCNCC4)cn3)nc2n1C1CCCC1 [LEE011/Ribociclib] in the same assay as above. Conditions: 0.001 µM.

Row | Cell Line | GR value [GR]
77 | UACC812 | 0.753
78 | UACC893 | 0.564
79 | ZR751 | 0.912
80 | ZR7530 | 0.854

Same assay, conditions: 0.003162 µM

Row | Cell Line | GR value [GR]
81 | UACC812 | 0.55
82 | UACC893 | 0.501
83 | ZR751 | 0.814
84 | ZR7530 | 0.695

Same assay, conditions: 0.01 µM

Row | Cell Line | GR value [GR]
85 | UACC812 | 0.569
86 | UACC893 | 0.497
87 | ZR751 | 0.881
88 | ZR7530 | 0.687

Same assay, conditions: 0.03162 µM

Row | Cell Line | GR value [GR]
89 | UACC812 | 0.333
90 | UACC893 | 0.461
91 | ZR751 | 0.801
92 | ZR7530 | 0.857

Same assay, conditions: 0.1 µM

Row | Cell Line | GR value [GR]
93 | UACC812 | 0.309
94 | UACC893 | 0.494
95 | ZR751 | 0.812
96 | ZR7530 | 0.607

Same assay, conditions: 0.3162 µM

Row | Cell Line | GR value [GR]
97 | UACC812 | 0.218
98 | UACC893 | 0.422
99 | ZR751 | 0.667
100 | ZR7530 | 0.463

Same assay, conditions: 1 µM

Row | Cell Line | GR value [GR]
101 | UACC812 | 0.148
102 | UACC893 | 0.473
103 | ZR751 | 0.737
104 | ZR7530 | 0.434

Same assay, conditions: 3.162 µM

Row | Cell Line | GR value [GR]
105 | UACC812 | 0.171
106 | UACC893 | 0.48
107 | ZR751 | 0.603
108 | ZR7530 | 0.443

Same assay, conditions: 10 µM

Row | Cell Line | GR value [GR]
109 | UACC812 | 0.0704
110 | UACC893 | 0.484
111 | ZR751 | 0.351
112 | ZR7530 | 0.41

Each cell line was assayed with T1, Flavopiridol in the same assay as above. Conditions: 0.0001 µM.

Row | Cell Line | GR value [GR]
113 | UACC812 | 0.797
114 | UACC893 | 1.02
115 | ZR751 | 0.988
116 | ZR7530 | 1.03

Same assay, conditions: 0.0003162 µM

Row | Cell Line | GR value [GR]
117 | UACC812 | 1.15
118 | UACC893 | 0.977
119 | ZR751 | 0.993
120 | ZR7530 | 1.14

Same assay, conditions: 0.001 µM

Row | Cell Line | GR value [GR]
121 | UACC812 | 0.734
122 | UACC893 | 0.945
123 | ZR751 | 0.995
124 | ZR7530 | 1.04

Same assay, conditions: 0.003162 µM

Row | Cell Line | GR value [GR]
125 | UACC812 | 0.914
126 | UACC893 | 0.821
127 | ZR751 | 0.915
128 | ZR7530 | 0.795

Same assay, conditions: 0.01 µM

Row | Cell Line | GR value [GR]
129 | UACC812 | 0.878
130 | UACC893 | 0.866
131 | ZR751 | 0.952
132 | ZR7530 | 0.93

Same assay, conditions: 0.03162 µM

Row | Cell Line | GR value [GR]
133 | UACC812 | 0.785
134 | UACC893 | 0.822
135 | ZR751 | 0.988
136 | ZR7530 | 1.13

Same assay, conditions: 0.1 µM

Row | Cell Line | GR value [GR]
137 | UACC812 | 0.457
138 | UACC893 | 0.609
139 | ZR751 | 0.935
140 | ZR7530 | 0.766

Same assay, conditions: 0.3162 µM

Row | Cell Line | GR value [GR]
141 | UACC812 | -0.332
142 | UACC893 | 0.0303
143 | ZR751 | 0.577
144 | ZR7530 | 0.119

Same assay, conditions: 1 µM

Row | Cell Line | GR value [GR]
145 | UACC812 | -0.812
146 | UACC893 | -0.465
147 | ZR751 | -0.371
148 | ZR7530 | -0.662

Each cell line was assayed with CN(C)C/C=C/C(=O)Nc1ccc(C(=O)N2CCC[C@@H](Nc3ncc(Cl)c(-c4c[nH]c5ccccc45)n3)C2)cc1 [THZ531] in the same assay as above. Conditions: 0.0001 µM.

Row | Cell Line | GR value [GR]
149 | UACC812 | 0.819
150 | UACC893 | 1.05
151 | ZR751 | 1.06
152 | ZR7530 | 0.959

Same assay, conditions: 0.0003162 µM

Row | Cell Line | GR value [GR]
153 | UACC812 | 1.04
154 | UACC893 | 1.05
155 | ZR751 | 0.851
156 | ZR7530 | 1.15

Same assay, conditions: 0.001 µM

Row | Cell Line | GR value [GR]
157 | UACC812 | 0.807
158 | UACC893 | 0.907
159 | ZR751 | 0.958
160 | ZR7530 | 0.926

Same assay, conditions: 0.003162 µM

Row | Cell Line | GR value [GR]
161 | UACC812 | 0.754
162 | UACC893 | 1.06
163 | ZR751 | 0.936
164 | ZR7530 | 0.99
